Data from publication PMC12397098, “3-Monothiopomalidomide, a new immunomodulatory imide drug (IMiD), blunts inflammation and mitigates ischemic stroke in the rat” (GeroScience, 2025).
Like-named read-outs stand apart in the source and are kept apart here.

Assays:
[1] = test system: LPS-induced cytokines (TNF-α, IL-6, IL-10, IL-13) in plasma and cerebral cortex; experiment: Systemic and brain LPS anti-inflammatory study in rats; format: in vivo; details: rat, 1 h pre-treatment, 3-MP 13.23 and 26.47 mg/kg I.P., pomalidomide 25 mg/kg I.P., LPS 1 mg/kg I.P., 4 h
[2] = Sprague Dawley, rat, 1 μM
[3] = human, 1 μM
[4] = 3-MP nanosuspension time-dependent stability (LC-MS); format: physicochemical
Protocol: Thalidomide, pomalidomide, and most related analogues have poor aqueous solubility. As a consequence, to aid biological evaluation, a 3-MP nanosuspension was prepared in line with our prior study. Specifically, the drug was mixed in an aqueous solution (Tween 80/water) and vortexed for 10 min. The coarse drug suspension was then placed in Eppendorf microtubes containing approximately 0.4 g of 0.1–0.2 mm yttrium-stabilized zirconia-silica beads (Silibeads® Typ ZY Sigmund Lindner, Germany). These were vortexed twice, at 3000 rpm for 45 min, using a beads-milling cell disruptor (Disruptor Genie®, Scientific Industries, USA). […] To evaluate the stability of the 3-MP nanosuspension, a vial (241 μM, 4 °C) was time-dependently sampled over a 98-day period, and the drug was quantified by LC–MS (see Supplementary information). […]
Nanoformulation LC/MS Assays: A rudimentary assay was devised to assess the relative stability of nanoformulated 3-MP. In short, a sample of nanoformulated 3-MP was monitored for degradation until, roughly, 10% of the original material was lost due to hydrolysis and other such factors. […] These samples were immediately analyzed. […] The areas of the ensuing UV peaks detected at 254nm served as the basis for analysis, and the stock nanoformulation was monitored as a function of derivation from the 3-MP nanoformulation t=0 area (defined as “100% Area Percent” in the initial trace). […]

Structure (SMILES): Nc1cccc2c1C(=S)N(C1CCC(=O)NC1=O)C2=O (stereo not drawn) [3-MP, 3-Monothiopomalidomide]
- LPS-induced cytokine changes in plasma and cerebral cortex [1]: significantly mitigated
- reduction of 3-MP levels following 60-min incubation ([2]; 60 min): 24.3%
- Remaining (NCF = 60 min) ([2]; microsomes, 1 h): 116.4%
- Remaining (T = 60 min) ([2]; microsomes, 1 h): 75.7%
- reduction of 3-MP levels following 60-min incubation ([3]; 60 min): 8.2%
- Remaining (NCF = 60 min) ([3]; microsomes, 1 h): 115.3%
- Remaining (T = 60 min) ([3]; microsomes, 1 h): 91.8%
- area of the 3-MP peak, relative intensity ([4]; nanoformulated 3-MP stock stored in the dark at 4 °C, t=98 days, UV 254 nm, relative to t=0): below 90%
- stability of 3-MP nanosuspension ([4]; nanosuspension in Tween-80/water, 241 μM, 4 °C, 98-day period, LC–MS/MS): time-dependently stable
